Test results reported in patent publication US5608081A, “Hydroxymethylpolythiophene derivatives” (Industrial Technology Research Institute, priority 1995, dated 1997).

Assay: Anti-edema activity, conventional toe edema method using carrageenan as pyrogen and indomethacin as control inhibitory agent
Assay type: in vivo
Details: inhibition rate above 30% considered also antiinflammatory
Experimental: The anti-edema activity was tested according to the conventional toe edema method using carrageenan as pyrogen and indomethacin as control inhibitory agent. See C. A. Winter, E. A. Risley and G. W. Nuss, Biol. Med., 111, 544 (1962); and A. P. Roszkowshi, W. H. Rooks II, A. J. Tomolonis and L. M. Miller, J. Pharmacol. Exp. Ther., 179, 114 (1971), both of which are hereby incorporated by reference.
In general, polythiophene derivatives of this invention have shown significant anti-edema activity.

Structure (SMILES) | Anti-edema effect, inhibition rate (dosage 10 mg/kg) [%] | Anti-edema effect, inhibition rate (dosage 50 mg/kg) [%] | Anti-edema effect, inhibition rate (dosage 100 mg/kg) [%] | Anti-edema effect, inhibition rate (dosage 200 mg/kg) [%]
OCc1ccc(-c2ccc(CO)s2)s1 | 26 | 34 | 37 | 41
CC(=O)OCc1ccc(-c2ccc(COC(C)=O)s2)s1 |  | 17 | 28 | 28
OCCC#Cc1ccc(-c2cccs2)s1 |  | 32 | 36 | 38
